Laboratory results from patent US12084437B2, “Halo-substituted piperidines as orexin receptor modulators” (AstraZeneca AB, priority 2016, dated 2024).
Where “and” joins values, the source holds several entries; their conditions need not be identical. Identical values can stand only once.

Legend:
OX1 = molecular target: T1, OX1 (Homo sapiens, UniProt O43613); experiment: Orexin receptor cell-based functional assay, [Ca2+]i by FLIPR, CHO-OX1 cells; conditions: FLIPR calcium, antagonism of EC90 of [OX], read-out: OXI, IC50
T1 construct: expressed in transfected cells; host or cells: CHO (CHO-OX1)
T1 sequence (O43613 1-425): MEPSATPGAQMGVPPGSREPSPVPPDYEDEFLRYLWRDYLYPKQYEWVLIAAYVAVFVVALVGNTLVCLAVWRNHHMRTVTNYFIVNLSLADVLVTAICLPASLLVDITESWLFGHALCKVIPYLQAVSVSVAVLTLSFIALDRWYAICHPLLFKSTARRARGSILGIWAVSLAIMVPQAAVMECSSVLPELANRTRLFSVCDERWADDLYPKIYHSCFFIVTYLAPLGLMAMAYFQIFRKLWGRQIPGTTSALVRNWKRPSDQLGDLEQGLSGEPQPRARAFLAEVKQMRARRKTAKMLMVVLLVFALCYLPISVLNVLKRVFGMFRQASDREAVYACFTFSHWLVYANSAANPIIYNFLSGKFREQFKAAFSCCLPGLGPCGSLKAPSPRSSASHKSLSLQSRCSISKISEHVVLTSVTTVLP

OX2 = molecular target: T2, OX2 (Homo sapiens, UniProt O43614); experiment: Orexin receptor cell-based functional assay, [Ca2+]i by FLIPR, CHO-OX2 cells; conditions: FLIPR calcium, antagonism of EC90 of [OX]
T2 construct: expressed in transfected cells; host or cells: CHO (CHO-OX2)
T2 sequence (O43614 1-444): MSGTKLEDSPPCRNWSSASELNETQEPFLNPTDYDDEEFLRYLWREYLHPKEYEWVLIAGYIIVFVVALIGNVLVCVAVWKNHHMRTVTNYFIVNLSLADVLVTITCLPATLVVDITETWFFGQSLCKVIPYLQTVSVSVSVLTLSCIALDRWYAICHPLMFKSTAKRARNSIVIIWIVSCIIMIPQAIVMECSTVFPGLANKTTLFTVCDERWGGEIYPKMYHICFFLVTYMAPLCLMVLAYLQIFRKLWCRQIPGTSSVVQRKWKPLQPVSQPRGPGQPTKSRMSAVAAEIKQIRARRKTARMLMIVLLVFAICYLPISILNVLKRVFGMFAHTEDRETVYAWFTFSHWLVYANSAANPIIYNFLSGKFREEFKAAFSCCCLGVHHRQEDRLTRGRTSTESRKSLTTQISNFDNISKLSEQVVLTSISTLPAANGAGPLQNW
How it was run: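 CHO cells expressing human OX1 or OX2 (20,000/well, grown overnight) were loaded with Calcium6 dye plus 2.5 mM probenecid for 2 h at 37 °C, then preincubated 30 min with compound (0.1 nM–10 µM). FLIPR fluorescence (ex 488/em 540 nm) was tracked before and after an EC90 orexin challenge.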

IC50 (OX1) | IC50 (OX2) [nM] | Structure (SMILES)
29 nM | > 5000 | CCc1cnc(NC[C@@H]2[C@H](C)CC(F)(F)CN2C(=O)c2nc(C)sc2-c2ccc(F)cc2)nc1 [Compound 239, ((2S,3R)-2-(((5-ethylpyrimidin-2-yl)amino)methyl)-5,5-difluoro-3-methylpiperidin-1-yl)(5-(4-fluorophenyl)-2-methylthiazol-4-yl)methanone]
52 nM | > 5000 | C[C@@H]1CC(F)(F)CN(C(=O)c2nn(C)cc2-c2ncccn2)[C@@H]1COc1cnc(C(F)(F)F)cn1 [Compound 223, ((2S,3R)-5,5-difluoro-3-methyl-2-(((5-(trifluoromethyl)pyrazin-2-yl)oxy)methyl)piperidin-1-yl)(1-methyl-4-(pyrimidin-2-yl)-1H-pyrazol-3-yl)methanone]
26 nM | > 5000 | C[C@@H]1CC(F)(F)CN(C(=O)c2nn(C)cc2-c2ncccn2)[C@@H]1COc1ncc(C(F)(F)F)cn1 [Compound 222, ((2S,3R)-5,5-difluoro-3-methyl-2-(((5-(trifluoromethyl)pyrimidin-2-yl)oxy)methyl)piperidin-1-yl)(1-methyl-4-(pyrimidin-2-yl)-1H-pyrazol-3-yl)methanone]
12 nM and 6 nM | > 5000 | Cc1ccc(-c2cn(C)nc2C(=O)N2CC(F)(F)C[C@@H](C)[C@H]2CNc2ncc(C(F)(F)F)cn2)cc1 [Compound 32]
7 nM | > 5000 | Cc1cc(C(=O)N2CC(F)(F)C[C@@H](C)[C@H]2CNc2ncc(C(F)(F)F)cn2)c(-c2ccccn2)s1 [Compound 91]
7 nM | > 5000 | C[C@@H]1CC(F)(F)CN(C(=O)c2cc(Cl)ccc2-n2nccn2)[C@@H]1CNc1ncc(C(F)(F)F)cn1 [Compound 10]
1700 nM | > 5000 | CC(C)n1cc(-c2ncccn2)c(C(=O)N2CC(F)(F)C[C@@H](C)[C@H]2CNc2ncc(C(F)(F)F)cn2)n1 [Compound 237, ((2S,3R)-5,5-difluoro-3-methyl-2-(((5-(trifluoromethyl)pyrimidin-2-yl)amino)methyl)piperidin-1-yl)(1-isopropyl-4-(pyrimidin-2-yl)-1H-pyrazol-3-yl)methanone]
> 5000 nM | 3700 | C[C@@H]1CC(F)(F)CN(C(=O)c2nc(C(F)(F)F)ccc2-n2nccn2)[C@@H]1CNc1ccc(C(F)(F)F)cn1 [Compound 203, (3-(2H-1,2,3-triazol-2-yl)-6-(trifluoromethyl)pyridin-2-yl)((2S,3R)-5,5-difluoro-3-methyl-2-(((5-(trifluoromethyl)pyridin-2-yl)amino)methyl)piperidin-1-yl)methanone]
7 nM | > 5000 | C[C@@H]1CC(F)(F)CN(C(=O)c2nn(C)cc2-c2ncc(Cl)cn2)[C@@H]1CNc1ncc(C(F)(F)F)cn1 [Compound 218, (4-(5-chloropyrimidin-2-yl)-1-methyl-1H-pyrazol-3-yl)((2S,3R)-5,5-difluoro-3-methyl-2-(((5-(trifluoromethyl)pyrimidin-2-yl)amino)methyl)piperidin-1-yl)methanone]
5 nM | > 5000 | Cc1ccnc(-c2sc(C)nc2C(=O)N2CC(F)(F)C[C@@H](C)[C@H]2CNc2cnc(C(F)(F)F)cn2)c1 [Compound 147]
2 nM | > 5000 | C[C@@H]1CC(F)(F)CN(C(=O)c2nn(C)cc2-c2ccc(F)cc2)[C@@H]1CNc1ccc(C(F)(F)F)cn1 [Compound 169]
8 nM | > 5000 | C[C@@H]1CC(F)(F)CN(C(=O)c2cc(F)ccc2-c2nnn(C)n2)[C@@H]1CNc1ncc(C(F)(F)F)cn1 [Compound 252, ((2S,3R)-5,5-difluoro-3-methyl-2-(((5-(trifluoromethyl)pyrimidin-2-yl)amino)methyl)piperidin-1-yl)(5-fluoro-2-(2-methyl-2H-tetrazol-5-yl)phenyl)methanone]
8 nM | > 5000 | C[C@@H]1CC(F)(F)CN(C(=O)c2cc(Cl)ccc2-n2nccn2)[C@@H]1CNc1ncc(Cl)cn1 [Compound 11]
10 nM | > 5000 | Cc1cccc(-c2sc(C)nc2C(=O)N2CC(F)(F)C[C@@H](C)[C@H]2CNc2cnc(C(F)(F)F)cn2)c1 [Compound 139]
5 nM | > 5000 | C[C@@H]1CC(F)(F)CN(C(=O)c2nn(C)cc2-c2ccccn2)[C@@H]1CNc1ccc(C(F)(F)F)cn1 [Compound 167]
82 nM | > 5000 | CCn1cc(-c2ncccn2)c(C(=O)N2CC(F)(F)C[C@@H](C)[C@H]2CNc2ncc(C(F)(F)F)cn2)n1 [Compound 232, ((2S,3R)-5,5-difluoro-3-methyl-2-(((5-(trifluoromethyl)pyrimidin-2-yl)amino)methyl)piperidin-1-yl)(1-ethyl-4-(pyrimidin-2-yl)-1H-pyrazol-3-yl)methanone]

IC50 (OX1) | IC50 (OX2) [nM] | Structure (SMILES)
14 nM | > 5000 | Cc1ccc(-c2ccc(C)nc2C(=O)N2CC(F)(F)C[C@@H](C)[C@H]2CNc2ncc(C(F)(F)F)cn2)nc1 [Compound 231, ((2S,3R)-5,5-difluoro-3-methyl-2-(((5-(trifluoromethyl)pyrimidin-2-yl)amino)methyl)piperidin-1-yl)(5,6′-dimethyl-[2,3′-bipyridin]-2′-yl)methanone]
19 nM | > 5000 | C[C@@H]1CC(F)(F)CN(C(=O)c2nn(C)cc2-c2ccccn2)[C@@H]1CNc1ncc(C(F)(F)F)cn1 [Compound 36]
50 nM | > 5000 | C[C@@H]1CC(F)(F)CN(C(=O)c2nn(C)cc2-c2ncc(F)cn2)[C@@H]1COc1ccc(C(F)(F)F)cn1 [Compound 248]
9 nM | > 5000 | Cc1ccc(-c2ccccc2)c(C(=O)N2CC(F)(F)C[C@@H](C)[C@H]2CNc2ncc(Cl)cn2)n1 [Compound 52]
8 nM | > 5000 | Cc1ccc(-c2nnn(C)n2)c(C(=O)N2CC(F)(F)C[C@@H](C)[C@H]2CNc2ncc(C(F)(F)F)cn2)c1 [Compound 8]
4 nM | > 5000 | Cc1ccnc(-c2cn(C)nc2C(=O)N2CC(F)(F)C[C@@H](C)[C@H]2CNc2cnc(C(F)(F)F)cn2)c1 [Compound 134]
4 nM | > 5000 | Cc1cccc(-c2sc(C)nc2C(=O)N2CC(F)(F)C[C@@H](C)[C@H]2CNc2ncc(C(F)(F)F)cn2)n1 [Compound 77]
19 nM | > 5000 | COc1ccc(-c2cn(C)nc2C(=O)N2CC(F)(F)C[C@@H](C)[C@H]2CNc2cnc(C(F)(F)F)cn2)nc1 [Compound 135]
8 nM | > 5000 | C[C@@H]1CC(F)(F)CN(C(=O)c2nn(C)cc2-c2ccccn2)[C@@H]1COc1ccc(C(F)(F)F)cn1 [Compound 220, ((2S,3R)-5,5-difluoro-3-methyl-2-(((5-(trifluoromethyl)pyridin-2-yl)oxy)methyl)piperidin-1-yl)(1-methyl-4-(pyridin-2-yl)-1H-pyrazol-3-yl)methanone]
192 nM | > 5000 | C[C@@H]1CC(F)(F)CN(C(=O)c2cc(F)ccc2-n2nccn2)[C@@H]1CNc1ncc(C(F)(F)F)cn1 [Compound 1, ((2S,3R)-5,5-difluoro-3-methyl-2-(((5-(trifluoromethyl)pyrimidin-2-yl)amino)methyl)piperidin-1-yl)(5-fluoro-2-(2H-1,2,3-triazol-2-yl)phenyl)methanone]
6 nM | > 5000 | Cc1ccc(-c2sc(C)nc2C(=O)N2CC(F)(F)C[C@@H](C)[C@H]2CNc2cnc(C(F)(F)F)cn2)cc1 [Compound 138]
11 nM | > 5000 | Cc1ccc(-c2cn(C)nc2C(=O)N2CC(F)(F)C[C@@H](C)[C@H]2CNc2cnc(C(F)(F)F)cn2)nc1 [Compound 133]
> 2000 nM | > 5000 | C[C@@H]1CC(F)(F)CN(C(=O)c2nn(CC(F)(F)F)cc2-c2ncccn2)[C@@H]1CNc1ncc(C(F)(F)F)cn1 [Compound 238, ((2S,3R)-5,5-difluoro-3-methyl-2-(((5-(trifluoromethyl)pyrimidin-2-yl)amino)methyl)piperidin-1-yl)(4-(pyrimidin-2-yl)-1-(2,2,2-trifluoroethyl)-1H-pyrazol-3-yl)methanone]
11 nM | > 5000 | COc1cccc(-c2sc(C)nc2C(=O)N2CC(F)(F)C[C@@H](C)[C@H]2CNc2cnc(C(F)(F)F)cn2)n1 [Compound 151]
> 5000 nM | > 5000 | CCc1cnc(NC[C@@H]2[C@H](C)CC(F)(F)CN2C(=O)c2nn(C)cc2-c2ccc(F)cn2)nc1 [Compound 41]
